Test results published in patent publication US10259804B2, “Anti-endothelial lipase compounds and methods of using the same in the treatment and/or prevention of cardiovascular diseases” (Shifa Biomedical Corporation, priority 2014, dated 2019).

Legend:
Type in all cases: biochemical
[1] = molecular target: T1, human full-length EL (endothelial lipase) (Homo sapiens, UniProt Q9Y5X9); test: EL inhibition assay using cell extracts of HEK293/EL transfected cells; conditions: compound 0.001-200 μM, means of three experiments
T1 construct: We have cloned the human full-length EL, LPL, HL and PL; made in house; host or cells: HEK-293, transient transfection; cell extracts used
T1 sequence (Q9Y5X9 21-500): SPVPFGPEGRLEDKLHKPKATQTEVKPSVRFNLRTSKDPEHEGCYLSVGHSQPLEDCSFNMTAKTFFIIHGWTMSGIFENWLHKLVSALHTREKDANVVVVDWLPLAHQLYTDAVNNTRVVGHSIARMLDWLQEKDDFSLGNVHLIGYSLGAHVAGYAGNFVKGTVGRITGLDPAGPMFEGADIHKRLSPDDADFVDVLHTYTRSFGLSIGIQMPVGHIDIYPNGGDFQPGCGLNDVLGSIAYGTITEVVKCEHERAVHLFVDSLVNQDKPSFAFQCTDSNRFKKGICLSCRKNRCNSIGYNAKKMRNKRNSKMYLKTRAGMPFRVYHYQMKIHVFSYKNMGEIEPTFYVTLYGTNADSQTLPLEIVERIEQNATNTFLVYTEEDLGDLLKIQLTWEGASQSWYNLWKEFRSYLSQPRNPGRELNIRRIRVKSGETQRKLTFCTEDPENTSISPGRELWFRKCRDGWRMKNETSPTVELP
Description: (§1) Preparation of constructs: We have cloned the human full-length EL, LPL, HL and PL. The cDNA encoding the EL, LPL, HL and PL sequence was cloned by PCR and subcloned into a mammalian expression vector containing the cytomegalovirus promoter-enhancer. The constructs were confirmed by sequence analysis.
(§2) Expression of EL, LPL, HL and PL in mammalian cells: The above constructs were used to transfect HEK-293 cells. The cells were seeded into T75 plates in a DMEM solution containing 10% Fetal Bovine Serum media and incubated overnight at 37° C. Cells were transiently transfected with various cDNA constructs using the Lipofectamine-LTX as described by the manufacturer (Invitrogen). After transfection, cells were then incubated for an additional 48 hours at 37° C. before being analyzed for expression. After 48 hours of incubation, following transfection, cells were collected for analysis by western blots for the expression of EL, LPL, HL and PL.
EL screening assay: We developed and implemented two assays (a) in assay one the HDL-C functions as a substrate for the assay. This assay measures the rate of HDL hydrolysis by EL that yields free fatty acids, which are then coupled through acyl-CoA synthetase, acyl-CoA oxidase and horseradish peroxidase to produce the fluorescent species, resorufin; (b) in assay two PED-A1, a novel fluorogenic phospholipase A1-selective substrate was used for EL measurements. […] Assay one was used for initial screening, while assay two was used for secondary screening and EL kinetics.
Characterization of the Hits: A library of compounds that modified both the urea and sulfonamide substituents on the 5-methyl furan were synthesized. The library was extensively analyzed for EL potency, and then the data was utilized to further optimize the compounds. Seven compounds were selected for potency, kinetic and selectivity confirmation.
In order to determine the Ki value, we used variable concentrations of the compound and variable substrate concentrations.

[2] = molecular target: T2, human full-length PL (pancreatic lipase) (Homo sapiens, UniProt P16233); test: PL selectivity assay (phospholipase kit, resorufinoleate substrate); conditions: even at 200 uM compound concentration
T2 construct: We have cloned the human full-length EL, LPL, HL and PL; made in house; host or cells: HEK-293, transient transfection
T2 sequence (P16233 17-465): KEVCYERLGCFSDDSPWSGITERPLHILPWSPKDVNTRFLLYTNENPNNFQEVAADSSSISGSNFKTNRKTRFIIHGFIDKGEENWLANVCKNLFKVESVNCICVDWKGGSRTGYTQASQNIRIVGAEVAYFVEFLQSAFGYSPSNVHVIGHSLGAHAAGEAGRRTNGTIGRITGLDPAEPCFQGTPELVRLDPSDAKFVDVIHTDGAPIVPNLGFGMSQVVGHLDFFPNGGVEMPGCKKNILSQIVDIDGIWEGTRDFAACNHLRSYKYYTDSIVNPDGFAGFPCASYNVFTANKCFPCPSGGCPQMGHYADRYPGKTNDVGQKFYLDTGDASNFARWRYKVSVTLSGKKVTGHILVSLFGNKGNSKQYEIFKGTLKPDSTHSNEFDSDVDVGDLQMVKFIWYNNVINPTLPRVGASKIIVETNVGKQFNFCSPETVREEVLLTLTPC
Description: as §1, §2
(§3) LPL, PL and HL selectivity assays: For measuring LPL, PL and HL activity, we used the commercially available phospholipase kit (MGT). The activity of the substrate, resorufinoleate is quite good for both phospholipase A1 and phospholipase A2, and therefore is ideal for LPL, PL and HL. Since the substrate is quite general for other lipases such as triacylglycerol lipases or lipoprotein lipases, we utilized our recombinant system and cell specific expression system to achieve the desired specificity. The LPL, PL and HL enzyme activity measurements were conducted using a 96-well microtiter plate. All appropriate controls were implemented.
(§4) Experiments were also performed to determine the specificity of our best compounds against the most closely related homologues, LPL, PL and HL.

[3] = molecular target: T3, human full-length LPL (lipoprotein lipase) (Homo sapiens, UniProt P06858); test: LPL selectivity assay (phospholipase kit, resorufinoleate substrate); conditions: even at 200 uM compound concentration
T3 construct: We have cloned the human full-length EL, LPL, HL and PL; made in house; host or cells: HEK-293, transient transfection
T3 sequence (P06858 28-475): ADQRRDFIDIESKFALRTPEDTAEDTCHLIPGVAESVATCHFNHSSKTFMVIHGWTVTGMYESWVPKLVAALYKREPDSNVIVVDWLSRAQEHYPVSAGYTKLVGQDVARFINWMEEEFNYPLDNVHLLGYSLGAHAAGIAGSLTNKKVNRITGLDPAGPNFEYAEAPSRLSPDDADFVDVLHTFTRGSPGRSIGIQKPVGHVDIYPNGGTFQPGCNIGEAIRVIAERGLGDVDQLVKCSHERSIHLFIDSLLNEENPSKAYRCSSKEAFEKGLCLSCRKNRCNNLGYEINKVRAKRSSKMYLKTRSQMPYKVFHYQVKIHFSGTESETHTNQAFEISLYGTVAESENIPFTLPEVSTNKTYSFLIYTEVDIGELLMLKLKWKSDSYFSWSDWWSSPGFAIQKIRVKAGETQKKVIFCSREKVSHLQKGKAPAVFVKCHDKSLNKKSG
Description: as §1, §2, §3, §4

[4] = molecular target: T4, human full-length HL (hepatic lipase) (Homo sapiens, UniProt P11150); test: HL selectivity assay (phospholipase kit, resorufinoleate substrate); conditions: even at 200 uM compound concentration
T4 construct: We have cloned the human full-length EL, LPL, HL and PL; made in house; host or cells: HEK-293, transient transfection
T4 sequence (P11150 23-499): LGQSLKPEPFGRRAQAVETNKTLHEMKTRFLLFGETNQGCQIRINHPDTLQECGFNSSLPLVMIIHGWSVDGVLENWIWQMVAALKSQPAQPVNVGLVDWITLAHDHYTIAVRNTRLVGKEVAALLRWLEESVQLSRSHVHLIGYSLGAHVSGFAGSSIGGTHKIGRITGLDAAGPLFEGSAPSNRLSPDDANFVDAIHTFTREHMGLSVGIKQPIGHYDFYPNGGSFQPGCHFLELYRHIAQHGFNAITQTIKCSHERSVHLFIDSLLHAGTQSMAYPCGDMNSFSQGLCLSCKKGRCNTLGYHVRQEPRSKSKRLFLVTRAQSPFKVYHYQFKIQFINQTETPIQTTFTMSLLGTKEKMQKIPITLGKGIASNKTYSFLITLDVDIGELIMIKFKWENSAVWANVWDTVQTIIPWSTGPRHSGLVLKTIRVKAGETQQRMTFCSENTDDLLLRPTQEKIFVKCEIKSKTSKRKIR
Description: as §1, §2, §3, §4

Structure (SMILES) | IC50 [1] [nM] | inhibition against PL activity [2] | inhibition against LPL activity [3] | inhibition against HL activity [4]
COC1CCN(S(=O)(=O)c2cc(NC(=O)NCc3ccccc3C(F)(F)F)c(C)o2)CC1 [SBC-140,460] | 19 | no inhibition | no inhibition | no inhibition
Cc1ccccc1NC(=O)Nc1cc(S(=O)(=O)N2CCC(C(F)(F)F)CC2)oc1C [SBC-140,466] | 62 | no inhibition | no inhibition | no inhibition
Cc1oc(S(=O)(=O)N2CCC(C(F)(F)F)CC2)cc1NC(=O)NC(c1ccccc1)C(F)(F)F (stereo not drawn) [SBC-140,472] | 79 | no inhibition | no inhibition | no inhibition
